Where two headings read alike, the source gives them in different places.
Columns and labels:
[1] = molecular target: T1, ε2/.zeta.1 heteromeric NMDA receptor channel (Mus musculus, UniProt P35438+Q01097); assay: Electrophysiological test in Xenopus oocytes expressing ε2 and .zeta.1 subunits; assay type: cell-based; conditions: for response to kainate / AMPA: 100 μM
T1 construct: expressed in transfected cells; host or cells: Xenopus oocytes injected with in vitro transcribed mRNAs
Procedure: (§1) Then, by using the pBKSA ε2 cut by NotI and the pBKSA ε3 cut by XbaI as molds and using T3 RNA polymerase produced by BRL Co., ε2-specific mRNAs and ε3-specific mRNAs were synthesized in vitro. Transcription was carried out in the same manner as in Example 1.
(§2) Effects of the competitive antagonist were examined with 10-fold concentration of the antagonist concentration used when examining the EC50 values.
Transcription was carried out in the same manner as in Example 1.

[2] = molecular target: ε3/.zeta.1 heteromeric NMDA receptor channel (Mus musculus, UniProt P35438+Q01098); assay: Electrophysiological test in Xenopus oocytes expressing ε3 and .zeta.1 subunits; assay type: cell-based; conditions: for response to kainate / AMPA: 100 μM
Sequence of ε3/.zeta.1 heteromeric NMDA receptor channel (Q01098 20-1239, other chains not shown): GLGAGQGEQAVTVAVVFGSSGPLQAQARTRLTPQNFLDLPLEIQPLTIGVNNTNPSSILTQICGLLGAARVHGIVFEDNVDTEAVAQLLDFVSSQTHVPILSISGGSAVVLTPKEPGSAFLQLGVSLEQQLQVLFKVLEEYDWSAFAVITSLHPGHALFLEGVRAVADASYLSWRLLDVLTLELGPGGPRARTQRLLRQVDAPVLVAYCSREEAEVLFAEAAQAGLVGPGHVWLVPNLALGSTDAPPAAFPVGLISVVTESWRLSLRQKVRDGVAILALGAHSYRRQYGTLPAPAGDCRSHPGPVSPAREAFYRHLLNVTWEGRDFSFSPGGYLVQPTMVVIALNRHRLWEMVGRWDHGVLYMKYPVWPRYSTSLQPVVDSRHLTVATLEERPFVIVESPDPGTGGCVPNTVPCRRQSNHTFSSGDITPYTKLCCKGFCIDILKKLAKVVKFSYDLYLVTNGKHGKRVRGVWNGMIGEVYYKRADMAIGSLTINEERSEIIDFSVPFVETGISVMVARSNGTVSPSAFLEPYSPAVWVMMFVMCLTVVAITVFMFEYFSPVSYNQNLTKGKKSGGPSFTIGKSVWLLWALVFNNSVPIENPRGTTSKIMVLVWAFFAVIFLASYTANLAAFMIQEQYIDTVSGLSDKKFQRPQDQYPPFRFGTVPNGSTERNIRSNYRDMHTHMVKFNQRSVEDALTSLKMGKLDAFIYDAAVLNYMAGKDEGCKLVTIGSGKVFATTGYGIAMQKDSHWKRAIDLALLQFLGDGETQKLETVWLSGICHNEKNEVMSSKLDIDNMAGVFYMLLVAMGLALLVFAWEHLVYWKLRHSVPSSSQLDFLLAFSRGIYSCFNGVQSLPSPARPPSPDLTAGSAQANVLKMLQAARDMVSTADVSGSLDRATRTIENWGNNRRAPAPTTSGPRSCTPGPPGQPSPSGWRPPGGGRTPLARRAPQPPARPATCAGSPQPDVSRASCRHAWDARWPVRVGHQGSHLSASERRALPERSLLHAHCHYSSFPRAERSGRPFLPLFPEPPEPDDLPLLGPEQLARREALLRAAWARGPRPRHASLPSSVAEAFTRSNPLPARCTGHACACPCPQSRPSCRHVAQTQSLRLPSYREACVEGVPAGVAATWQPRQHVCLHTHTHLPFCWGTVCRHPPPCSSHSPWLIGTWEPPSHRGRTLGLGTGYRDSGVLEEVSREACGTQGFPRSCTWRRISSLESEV
Procedure: as §1, §2

[3] = molecular target: ε4/.zeta.1 heteromeric NMDA receptor channel (Mus musculus, UniProt P35438+Q03391); assay: Electrophysiological test in Xenopus oocytes expressing ε4 and .zeta.1 subunits; assay type: cell-based
Sequence of ε4/.zeta.1 heteromeric NMDA receptor channel (Q03391 28-1323, other chains not shown): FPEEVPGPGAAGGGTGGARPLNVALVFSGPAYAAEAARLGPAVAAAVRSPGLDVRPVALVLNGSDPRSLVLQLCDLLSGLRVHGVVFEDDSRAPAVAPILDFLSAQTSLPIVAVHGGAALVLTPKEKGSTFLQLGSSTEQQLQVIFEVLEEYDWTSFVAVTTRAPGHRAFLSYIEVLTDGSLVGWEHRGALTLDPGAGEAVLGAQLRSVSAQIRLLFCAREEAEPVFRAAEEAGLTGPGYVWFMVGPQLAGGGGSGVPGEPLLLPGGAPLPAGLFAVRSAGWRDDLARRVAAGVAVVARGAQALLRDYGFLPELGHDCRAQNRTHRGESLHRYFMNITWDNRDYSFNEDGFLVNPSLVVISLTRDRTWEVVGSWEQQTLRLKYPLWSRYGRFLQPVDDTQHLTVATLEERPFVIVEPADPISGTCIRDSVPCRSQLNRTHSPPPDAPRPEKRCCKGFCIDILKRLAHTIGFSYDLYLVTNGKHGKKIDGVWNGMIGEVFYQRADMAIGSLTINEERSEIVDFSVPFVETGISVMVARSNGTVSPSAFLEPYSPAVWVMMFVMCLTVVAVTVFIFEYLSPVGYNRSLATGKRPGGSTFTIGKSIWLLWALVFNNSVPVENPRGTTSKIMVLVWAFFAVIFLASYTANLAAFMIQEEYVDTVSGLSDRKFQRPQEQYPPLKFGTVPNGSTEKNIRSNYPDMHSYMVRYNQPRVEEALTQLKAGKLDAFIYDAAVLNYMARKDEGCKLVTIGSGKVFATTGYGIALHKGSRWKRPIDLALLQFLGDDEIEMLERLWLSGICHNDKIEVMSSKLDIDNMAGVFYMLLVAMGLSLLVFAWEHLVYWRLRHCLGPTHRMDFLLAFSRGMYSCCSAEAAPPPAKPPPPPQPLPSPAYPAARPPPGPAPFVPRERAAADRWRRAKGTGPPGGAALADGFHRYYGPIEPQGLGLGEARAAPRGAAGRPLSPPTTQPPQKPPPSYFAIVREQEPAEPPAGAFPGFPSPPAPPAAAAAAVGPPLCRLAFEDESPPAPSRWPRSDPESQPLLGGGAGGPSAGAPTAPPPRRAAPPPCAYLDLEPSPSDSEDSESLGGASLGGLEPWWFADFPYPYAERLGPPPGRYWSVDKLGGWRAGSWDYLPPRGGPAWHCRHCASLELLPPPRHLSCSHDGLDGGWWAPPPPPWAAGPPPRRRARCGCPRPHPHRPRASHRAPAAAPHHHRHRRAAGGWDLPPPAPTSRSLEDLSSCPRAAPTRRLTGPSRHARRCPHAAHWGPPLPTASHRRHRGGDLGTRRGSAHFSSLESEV
Procedure: FIGS. 1(a) and 1(b) show functional expression of ε4/.zeta.1 heteromeric NMDA receptor channel cDNAs in frog oocytes. Current responses are measured at -70 mV membrane potential in normal Ringer's solution. […] FIG. 1(b) represent effects of 500 μM D-2-amino-5-phosphonovalerate (APV) (Glu/Gly +APV) and 100 μM 7-chlorokynurenate (7 CK) (Glu/Gly +7 CK) on a current response of the ε4/.zeta.1 heteromeric channel to Glu/Gly, respectively.
Current responses are measured at -70 mV membrane potential in a Ba^2+ -Ringer's solution.
Then, by using the pSPGR ε4 plasmid cut by EcoRI as a template and using SP6 RNA polymerase, ε4-specific mRNAs were synthesized in vitro. Transcription was carried out in the same manner as in Example 1.

[4] = system: ε1/.xi.1, ε2/.xi.1, ε3/.xi.1 and ε4/.xi.1 heteromeric NMDA receptor channels; assay: Comparison of ε1/, ε2/, ε3/ and ε4/.xi.1 heteromeric channels in Xenopus oocytes; assay type: cell-based, mouse
Procedure: (§6) The oocytes used were obtained from mature female Xenopus and separated into one oocyte in a Barth medium by using sharp tweezers and scissors. The concentration of the mRNAs was 0.1 μg/μl and 10 μl thereof was injected into about 100 oocytes in an amount of 50 to 100 nl per one oocyte. The mRNAs were injected under a microscope by using a capillary and a micromanipulator. After the injection, the oocytes were incubated at 19° C. for one day in a Barth medium containing 0.1 mg/ml of gentamicin ("The Control of Gene Expression in Animal Development, Clarendon, Oxford (1974)). Then, the oocytes were allowed to stand in 1 mg/ml of collagenase at room temperature for 1 hour, and then extracellular skins were removed under a microscope by using sharp tweezers. These oocytes were returned to the Barth medium containing 0.1 mg/ml of gentamicin, incubated again at 19° C. for one day and then used for an electrophysiological test.
(§7) The electrophysiological test was carried out by a conventional micropipet voltage clamp method. […] In the present experiment system, flow of these ions were detected, and opening and closing of the ion channel were observed. […]

[5] = molecular target: T2, ε1/.zeta.1 heteromeric NMDA receptor channel (Mus musculus, UniProt P35436+P35438); assay: Electrophysiological test (micropipet voltage clamp) in Xenopus oocytes expressing ε1 and .zeta.1 subunits; assay type: cell-based
T2 construct: expressed in transfected cells; host or cells: Xenopus oocytes injected with in vitro transcribed mRNAs
Text: as §2

[6] = system: ε3 subunit; assay: Electrophysiological test in Xenopus oocytes expressing only the ε3 subunit; assay type: cell-based, mouse; conditions: ε3 mRNA alone
Procedure: as §6
(§8) The electrophysiological test was carried out by a conventional micropipet voltage clamp method. Oocytes generally have a membrane potential of about -30 to -40 mV. […] In the present experiment system, flow of these ions were detected, and opening and closing of the ion channel were observed. […]

[7] = system: ε1 subunit; assay: Electrophysiological test in Xenopus oocytes expressing only the ε1 subunit; assay type: cell-based, mouse; conditions: 10 μM L-glutamate and 100 μM NMDA, even in the presence of 10 μM glycine
Procedure: One or both of ε1 subunit-specific mRNAs and .zeta.1.NMDA type glutamate receptor subunit-specific mRNAs (mRNAs derived from mice, coding an amino acid sequence different in the 213rd (Glu→Asp) and the 460th (Ile→Val) from the N terminal end from the amino acid sequence which is coded by cDNA.-NMDA R1 of a rat-NMDA type glutamate receptor cloned by Nakanishi et al. ("Nature", 354, pp. 31 to 37 (1991))) were injected into Xenopus oocytes.
The oocytes used were obtained from mature female Xenopus and separated into one oocyte in a Barth medium by using sharp tweezers and scissors. The concentration of the mRNAs was 0.1 μg/μl and 10 μl thereof was injected into about 100 oocytes in an amount of 50 to 100 nl per one oocyte. The mRNAs were injected under a microscope by using a capillary and a micromanipulator. After the injection, the oocytes were incubated at 19° C. for one day in a Barth medium containing 0.1 mg/ml of gentamicin ("The Control of Gene Expression in Animal Development, Clarendon, Oxford (1974)). […]
as §7

[8] = molecular target: .zeta.1 NMDA type receptor subunit (Mus musculus, UniProt P35438); assay: Electrophysiological test in Xenopus oocytes expressing only the .zeta.1 subunit; conditions: 100 μM NMDA and 10 μM glycine, n=7
Procedure: Then, by using the pBKSA ε1 cut by NotI as a template and using T3 RNA polymerase produced by BRL Co., ε1-specific mRNAs were synthesized in vitro. Transcription was carried out in a solution containing ATP, TTP and CTP at a concentration of 0.5 mM, respectively and 0.1 mM GTP in the presence of 0.5 mM dinucleotide 7mGpppG having a cap structure (in which 2 Gs were linked at 5' and 7-site of one guanine was methylated, produced by P-L Biochemicals Co.). One or both of ε1 subunit-specific mRNAs and .zeta.1.NMDA type glutamate receptor subunit-specific mRNAs (mRNAs derived from mice, coding an amino acid sequence different in the 213rd (Glu→Asp) and the 460th (Ile→Val) from the N terminal end from the amino acid sequence which is coded by cDNA.-NMDA R1 of a rat-NMDA type glutamate receptor cloned by Nakanishi et al. ("Nature", 354, pp. 31 to 37 (1991))) were injected into Xenopus oocytes.
as §6
The electrophysiological test was carried out by a conventional micropipet voltage clamp method. […] First, while a frog standard Ringer's solution (115 mM NaCl, 2.5 mM KCl, 1.8 mM CaCl2 and 10 mM HEPES-NaOH (pH: 7.2)) was flown in a chamber, 2 glass microelectrodes charged with 3M KCl were stuck in the oocytes, and the membrane potential was fixed to -70 mV. In these oocytes, an agonist (NMDA) is linked to a glutamate receptor expressed on a cell membrane and an ion channel is opened, the oocytes have an action of returning membrane potential to an original value, whereby inflow and outflow of ions are caused. In the present experiment system, flow of these ions were detected, and opening and closing of the ion channel were observed.
The ε1 subunit-specific mRNAs synthesized from the cloned cDNAs in vitro were injected into the Xenopus oocytes. […]

[9] = system: ε2 subunit; assay: Electrophysiological test in Xenopus oocytes expressing only the ε2 subunit; assay type: cell-based, mouse; conditions: ε2 mRNA alone
Procedure: as §6, §8

[10] = system: ε2-N589Q/.zeta.1 NMDA receptor channel; assay: Electrophysiological test in Xenopus oocytes expressing modified ε2-N589Q/.zeta.1 channel; assay type: cell-based, mouse
Text: (§3) In the figures, FIGS. 4(a), 4(b), 4(c) and 4(d) represent an ε2/.zeta.1 NMDA receptor channel, an ε2/.zeta.1-N598Q (a modified glutamate receptor shown in Sequence ID No. 9 of the sequence table) NMDA receptor channel, an ε2-N589Q (a modified glutamate receptor shown in Sequence ID No. 8 of the sequence table)/.zeta.l NMDA receptor channel and an ε2-N589Q/.zeta.1-N598Q NMDA receptor channel, respectively.
(§4) FIGS. 5(a) to 5(d) show current-voltage relationships of wild type and mutant heteromeric channels in the presence of 1 mM Mg^2+ ( ) and in the absence thereof (.smallcircle.). In the figures, FIGS. 5(a) , 5(b) , 5(c) and 5(d) represent an ε2/.zeta.1 NMDA receptor channel, an ε2/.zeta.1-N598Q NMDA receptor channel, an ε2-N589Q/.zeta.1 NMDA receptor channel and an ε2-N589Q/.zeta.1-N598Q NMDA receptor channel, respectively.
(§5) In the figure, .largecircle., , , .quadrature. and represent an ε2/.zeta.1 NMDA receptor channel, an ε2/.zeta.1-N598Q NMDA receptor channel, an ε2-N589Q/.zeta.1 NMDA receptor channel, an ε2-N589Q/.zeta.1-N598Q NMDA receptor channel and an ε2/.zeta.1-ZAZ (a mutant glutamate receptor shown in Sequence ID No. 10 of the sequence table) NMDA receptor channel, respectively. […]

[11] = system: ε2/.zeta.1-N598Q NMDA receptor channel; assay: Electrophysiological test in Xenopus oocytes expressing modified ε2/.zeta.1-N598Q channel; assay type: cell-based, mouse
Text: as §3, §4, §5

[12] = system: ε2-N589Q/.zeta.1-N598Q NMDA receptor channel; assay: Electrophysiological test in Xenopus oocytes expressing modified ε2-N589Q/.zeta.1-N598Q channel; assay type: cell-based, mouse
Text: as §3, §4, §5

[13] = system: ε1/.xi.1, ε2/.xi.1 and ε3/.xi.1 heteromeric NMDA receptor channels; assay: Comparison of ε1/, ε2/ and ε3/.xi.1 heteromeric channels in Xenopus oocytes; assay type: cell-based, mouse; conditions: 10-fold concentration used when examining EC50
Text: as §2

[14] = Ba^2+ Ringer's solution, dose-reaction curve
[15] = (+)-MK-801, continuous application

T1 sequence (Q01097 27-1482, other chains not shown): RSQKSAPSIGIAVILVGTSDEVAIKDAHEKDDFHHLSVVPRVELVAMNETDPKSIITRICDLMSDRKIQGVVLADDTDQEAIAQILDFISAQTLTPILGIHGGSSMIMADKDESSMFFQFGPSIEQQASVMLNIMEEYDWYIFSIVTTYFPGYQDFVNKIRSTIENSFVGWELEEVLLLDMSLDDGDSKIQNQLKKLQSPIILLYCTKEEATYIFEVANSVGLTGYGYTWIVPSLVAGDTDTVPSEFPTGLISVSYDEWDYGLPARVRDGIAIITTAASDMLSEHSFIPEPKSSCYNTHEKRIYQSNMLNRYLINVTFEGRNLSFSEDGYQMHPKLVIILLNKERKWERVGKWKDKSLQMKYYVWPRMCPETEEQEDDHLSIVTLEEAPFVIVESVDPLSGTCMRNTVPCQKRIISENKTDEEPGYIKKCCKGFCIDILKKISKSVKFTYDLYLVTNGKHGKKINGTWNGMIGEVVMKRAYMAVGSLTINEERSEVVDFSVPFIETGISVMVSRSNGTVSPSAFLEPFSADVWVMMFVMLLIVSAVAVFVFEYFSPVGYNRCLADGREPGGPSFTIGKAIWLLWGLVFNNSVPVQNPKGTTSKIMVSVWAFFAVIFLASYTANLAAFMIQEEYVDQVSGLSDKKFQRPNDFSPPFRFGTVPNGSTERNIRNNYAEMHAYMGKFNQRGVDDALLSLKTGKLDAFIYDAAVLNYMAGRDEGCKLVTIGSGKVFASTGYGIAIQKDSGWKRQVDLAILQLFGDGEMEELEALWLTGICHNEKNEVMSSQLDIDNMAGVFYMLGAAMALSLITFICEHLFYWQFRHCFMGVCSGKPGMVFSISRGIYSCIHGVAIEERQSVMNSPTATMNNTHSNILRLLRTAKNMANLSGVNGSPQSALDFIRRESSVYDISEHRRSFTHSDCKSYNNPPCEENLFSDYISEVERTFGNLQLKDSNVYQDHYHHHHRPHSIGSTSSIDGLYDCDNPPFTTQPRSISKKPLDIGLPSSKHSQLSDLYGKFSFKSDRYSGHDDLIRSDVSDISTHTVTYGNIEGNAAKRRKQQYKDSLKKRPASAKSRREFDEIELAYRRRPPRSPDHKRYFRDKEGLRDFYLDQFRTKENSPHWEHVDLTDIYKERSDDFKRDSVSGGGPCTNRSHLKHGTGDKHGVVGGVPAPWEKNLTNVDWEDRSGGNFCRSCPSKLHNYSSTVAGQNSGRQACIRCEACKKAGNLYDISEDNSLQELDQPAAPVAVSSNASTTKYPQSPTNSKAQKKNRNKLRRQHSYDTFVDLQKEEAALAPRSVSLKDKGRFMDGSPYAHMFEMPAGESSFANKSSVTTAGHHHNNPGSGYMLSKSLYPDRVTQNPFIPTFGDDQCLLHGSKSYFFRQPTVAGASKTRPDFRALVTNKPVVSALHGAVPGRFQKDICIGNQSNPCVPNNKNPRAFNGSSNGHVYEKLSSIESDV

N[C@@H](CC(=O)O)C(=O)O [L-aspartic acid]
response to agonist alone [1]: showed a response

NCC(=O)O [glycine]
response to agonist alone [2]: showed a response only to 10 μM glycine
EC50 [2, 14]: 0.2 µM
response to agonist alone [1]: showed a response
EC50 [1, 14]: 0.3 µM
EC50 [3]: 0.09 µM
Hill coefficient ([3]; Ba^2+ Ringer's solution, -70 mV): 1.2
order of strength in affinity to agonist ([4]; Ba^2+ Ringer's solution): ε4/.xi.1>ε3/.xi.1>ε2/.xi.1
EC50 ([5]; Ba^2+ Ringer's solution, dose-reaction curve, read-out: EC50): 2.1 µM

Cc1onc(O)c1CC(N)C(=O)O (centres unmarked) [AMPA]
response to kainate / AMPA [2]: less than the measurement limit
response to kainate / AMPA [1]: less than the measurement limit

CN[C@H](CC(=O)O)C(=O)O [NMDA, N-methyl-D-aspartic acid]
inward current [2]: 89±22 nA
inward current [1]: 546±172 nA
inward current ([3]; 100 μM NMDA and 10 μM glycine, frog standard Ringer's solution, -70 mV, n=8): 68±13 nA
response of oocytes injected singly [6]: < 1 nA
reaction of injected oocytes [7]: did not show any reaction
current amplitude ([5]; 100 μM NMDA and 10 μM glycine, Ba^2+ Ringer's solution, n=7): 57±3 nA
inward current ([5]; 100 μM NMDA and 10 μM glycine, frog standard Ringer's solution, -70 mV, n=7): 175±30 nA
current amplitude ([8]; Ba^2+ Ringer's solution): 1±0.2 nA
current amplitude ([8]; Example 1, frog standard Ringer's solution, -70 mV): 6±1 nA
current amplitude ([8]; Example 2): 9±2 nA
current amplitude ([8]; Example 3): 13±2 nA
response of oocytes injected singly [9]: < 1 nA

C[C@]12N[C@H](Cc3ccccc31)c1ccccc12 [(+)-MK-801]
effect on response to 10 μM L-glutamate and 10 μM glycine [2]: suppressed
effect on response to 10 μM L-glutamate and 10 μM glycine [1]: suppressed
inhibition of current response [1]: strongly inhibited
suppression after repetitive application [1]: suppressed almost completely
suppression after repetitive application [10, 15]: strongly inhibited
sensitivity to inhibition / current response ([10]; Mg^2+, Zn^2+, repetitive (+)-MK-801, frog standard Ringer's, -70 mV, 10 μM L-glutamate + 10 μM glycine): showed a great current response after repetitive application of (+)-MK-801
inhibition of current response ([11]; 1 mM Mg^2+, 100 μM Zn^2+, 1 μM (+)-MK-801, frog standard Ringer's, -70 mV, 10 μM L-glutamate + 10 μM glycine): suppressed effectively
suppression after repetitive application [11, 15]: strongly inhibited
suppression after repetitive application ([12]; (+)-MK-801 applied three times repeatedly): retained high activities
resistance / sensitivity to inhibition ([12]; Mg^2+, Zn^2+, (+)-MK-801, frog standard Ringer's, -70 mV, 10 μM L-glutamate + 10 μM glycine): strong resistance

N[C@@H](CCC(=O)O)C(=O)O [L-glutamate]
response of oocytes injected singly [6]: < 1 nA
EC50 [5]: 1.7 µM
response of oocytes injected singly [9]: < 1 nA

O=C(O)c1cc(O)c2ccc(Cl)cc2n1 [7 CK, 7-chlorokynurenate]
effect on response to 10 μM L-glutamate or 10 μM glycine alone ([2]; 100 μM APV, 30 μM 7 CK): disappeared
effect on response to 10 μM L-glutamate and 10 μM glycine ([2]; competitive antagonists, 100 μM Mg^2+, 100 μM Zn^2+, 1 μM (+)-MK-801): suppressed
effect on response to 10 μM L-glutamate and 10 μM glycine [1]: suppressed
effect on response to 10 μM L-glutamate or 10 μM glycine alone [1]: disappeared
decrease of channel activity ([3]; 100 μM APV or 3 μM 7 CK, response to 4.7 μM L-glutamate + 0.9 μM glycine, Ba^2+ Ringer's solution, -70 mV): 34%
effect on response to 10 μM L-glutamate and 10 μM glycine ([3]; 500 μM APV or 100 μM 7 CK): suppressed
degree of inhibition ([3]; compared with other ε/.xi. channels under the same conditions): smaller than those of the other ε/.xi. channels
order of sensitivity to competitive antagonist ([4]; 10-fold concentration of EC50 value): ε3/.xi.1>ε2/.xi.1>ε1/.xi.1=ε4/.xi.1
order of strength in sensitivity to competitive antagonist [13]: ε3/.xi.1>ε2/.xi.1>ε1/.xi.1

C=C(C)[C@H]1CN[C@H](C(=O)O)[C@H]1CC(=O)O [kainate]
response to kainate / AMPA [2]: less than the measurement limit
response to kainate / AMPA [1]: less than the measurement limit

Source: patent publication US5502166A, “NMDH receptor proteins and genes encoding the same” (Mitsubishi Chemical Corporation, priority 1992, dated 1996)
